# Source: patent US11982676B2, “Near-infrared fluorescent nanoprobe” (VALORISATION-RECHERCHE, LIMITED PARTNERSHIP, priority 2021, dated 2024)
# Tests used:
# [1] = Chemical stability on Si/SiO2: oxygen plasma, thermal annealing, piranha; assay type: physicochemical; conditions: oxygen plasma of 100 W for 10 minutes
# Method: The chemical stability of the nanohybrids is tested using individualized 6T@BNNT bundles on Si/SiO2 exposed to an oxygen plasma of 100 W for 10 minutes. […] The enhanced stability of the encapsulated dyes has also been observed upon thermal annealing up to 350° C. in air and using piranha solutions (not shown). […] The chemical and physical stability experiments have been repeated on a number of Dyes@BNNT nanohybrids of different lengths deposited on substrates or dispersed in a solution (See e.g. Supplementary Figs. 10 and 11). All of the results lead us to the same conclusion, which underlines the tremendous gain in stability inferred by the confinement of the 1D cavity of BNNTs.
# Daphnia pulex = test: Incubation of Daphnia pulex with samples in FLAMES medium, evaluation of potential toxicity; assay type: in vivo
# Description: The impressive robustness and fading-free properties of the Dyes@BNNT are appealing for bio-imaging applications. FIG. 4 presents an example of the use of nanohybrids to make optical nanoprobes for imaging living Daphnia pulex microorganisms in water—see bright-field image in FIG. 4a #1. Daphnia (also called water fleas) are common planktonic crustaceans, which find use as chemical sensors in ecotoxicology studies, thanks to their high sensitivity to water quality. To acquire the bio-images (FIG. 4a #2-5), we first solubilized the Dyes@BNNTs in a water-based living medium called FLAMES, using a poly (ethylene) glycol derivative (mPEG-DSPE) (Supplementary Section 2.9). […] Living daphniids were imaged under a fluorescence microscope equipped with UBG filter and a 10× objective. […] This natural blue-green signal originates from the auto-fluorescence of the tissues in FLAMES through the UBG filter, which disappears after death or after few minutes only of photobleaching. […]
# Before any experiment, many adult individuals of Daphnia pulex (clones DISP 1312) were kept at 22° C. in FLAMES with algae for 4 days, allowing a new reproducing cycle. Then, the specimens were transferred to a FLAMES medium algae-free and maintained this condition for at least 1 day to clean the digestive system and limit the fluorescence from the algae themselves during the images/time lapse acquisition—FIG. 8. […]
# HuH6 cells = test: Two-photon photobleaching test and excitation profile in fixed HuH6 cells; design: species or system human; conditions: λex=860 nm, 30 mins, 400 Hz, laser output power 2.55 W
# Method: To further assess a possible toxicity of the Dyes@BNNT, we performed an additional set of experiments at the scale of a cell. We incubated 10 μg·mL^−1 of a PEG-6T@BNNT solution for 24 hours with human hepatoblastoma HuH6 cells, which is one of the model cell lines used for toxicology studies. […] FIGS. 5a and 5c show fluorescence spectra consistent with DiA (green) and PEG-6T@BNNT (red) separated in the regions 2 and 1, respectively. […] The fluorescence of both the DiA and PEG-6T@BNNT, as a function of the excitation wavelength between 740 nm and 1020 nm, is shown in FIG. 5d. The resonance maximum of DiA is measured at 880 nm, which is distinct from the resonance of the PEG-6T@BNNT located at ˜740 nm, a position similar to that of functionalized polythiophene. […] To directly compare exposed and non-exposed cells, FIG. 5b presents a two-photon hyperspectral fluorescence image taken in a field of view slightly larger than the photobleaching test area. […]
# 3.2 Characterization by Raman and Photoluminescence. […] The equipment of the different setups is summarized in Table S2 and are described as follows: • The Luminescence images and photobleaching experiments, as presented in FIG. 3, main text, were performed at λex=532 nm using the Raman/PL mapping system RIMA™ (Photon etc.). […]
change in PL after oxygen plasma [1],fluorescence after two-photon photobleaching test (HuH6 cells),Structure (SMILES),"state of daphniids after first incubation test (Daphnia pulex; free 6T in FLAMES, incubation time of only few minutes)","time after which individuals died (Daphnia pulex; group B, incubated directly with 6T at 100 ug/mL) [h]"
completely vanished,,"c1csc(-c2ccc(-c3ccc(-c4ccc(-c5ccc(-c6cccs6)s5)s4)s3)s2)c1 [6T, α-sexithiophene]",found dead,20
,significantly photo-bleached,CCCCC/C=C\C/C=C\CCCCCCCCN(CCCCCCCC/C=C\C/C=C\CCCCC)c1ccc(C=Cc2cc[n+](C)cc2)cc1.O=S(=O)([O-])c1ccc(Cl)cc1 [DiA],,
